Data on 20 molecules can be found in PubChem BioAssay AID256 (DTP/NCI, 2004).

This experiment has as its system CD2F1 mice, L1210 leukemia ip, survival T/C. The experiment in a line: NCI In Vivo Anticancer Drug Screen. Data for tumor model L1210 Leukemia (intraperitoneal) in CD2F1 (CDF1) mice. The note with it: higher = longer survival. The essentials: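 Ratio T/C, where T is the treated-group value and C the vehicle-dosed control value, from mice implanted with a transplantable tumor.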

Setting [1] is: endpoint: mean survival time, dose: 100.0 mg/kg/injection, schedule: Q04DX002 (ip), vehicle: saline with Tween-80.
[2] abbreviates: endpoint: mean survival time, dose: 200.0 mg/kg/injection, schedule: Q04DX002 (ip), vehicle: saline with Tween-80.
Where [3] appears, read: endpoint: mean survival time, dose: 400.0 mg/kg/injection, schedule: Q04DX002 (ip), vehicle: saline with Tween-80.
The mark [4] stands for this setting: endpoint: mean survival time, dose: 100.0 mg/kg/injection, schedule: Q01DX001 (ip), vehicle: saline with Tween-80.
[5] abbreviates: endpoint: mean survival time, dose: 50.0 mg/kg/injection, schedule: Q01DX009 (ip), vehicle: saline with Tween-80.
The mark [6] stands for this setting: endpoint: mean survival time, dose: 100.0 mg/kg/injection, schedule: Q01DX009 (ip), vehicle: saline with Tween-80.
The mark [7] stands for this setting: endpoint: mean survival time, dose: 100.0 mg/kg/injection, schedule: Q04DX003 (ip), vehicle: saline with Tween-80.
[8] abbreviates: endpoint: mean survival time, dose: 200.0 mg/kg/injection, schedule: Q04DX003 (ip), vehicle: saline with Tween-80.
Where [9] appears, read: endpoint: mean survival time, dose: 400.0 mg/kg/injection, schedule: Q04DX003 (ip), vehicle: saline with Tween-80.
The mark [10] stands for this setting: endpoint: mean survival time, dose: 200.0 mg/kg/injection, schedule: Q01DX009 (ip), vehicle: saline with Tween-80.

SMILES strings stand for the structures. “And” between values parts separate entries of the source, which are not always exact repeats. Equal entries are not always repeated. Inconclusive results and toxic doses are left out.

As for `O=c1[nH]cnc2c1ncn2C1OC(CO)C(O)C1O.O=c1[nH]cnc2c1ncn2C1OC(CO)C(O)C1O.[Cl][Pt][Cl]` (centres undefined), the T/C (endpoint: mean survival time, dose: 12.5 mg/kg/injection, schedule: Q01DX009 (ip), vehicle: water) was 103 % of control; the T/C (endpoint: mean survival time, dose: 25.0 mg/kg/injection, schedule: Q01DX009 (ip), vehicle: water) was 101 % of control; the T/C (endpoint: mean survival time, dose: 50.0 mg/kg/injection, schedule: Q01DX009 (ip), vehicle: water) is 101 % of control; the T/C (endpoint: mean survival time, dose: 100.0 mg/kg/injection, schedule: Q01DX009 (ip), vehicle: water) is 101 % of control; the T/C (endpoint: mean survival time, dose: 200.0 mg/kg/injection, schedule: Q01DX009 (ip), vehicle: water) is 97 % of control.
Take `COc1ccc(-n2c(=O)[nH]c3c(c2=O)C(c2ccc(Cl)cc2)C(C)(C)O3)cc1` (centres undefined): the T/C by setting is: under setting [1], 100 % of control; under setting [2], 95 % of control; under setting [3], 103 % of control.
As for `CC(=O)Nc1cc([N+](=O)[O-])cc([N+](=O)[O-])c1O`, the T/C under setting [4] is 101 % of control and the T/C (endpoint: mean survival time, dose: 200.0 mg/kg/injection, schedule: Q01DX001 (ip), vehicle: saline with Tween-80) is 98 % of control.
As for `C=CC(=O)OCCCS(=O)(=O)[O-].C=CC(=O)OCCCS(=O)(=O)[O-].NC1CCCCC1N.[Pt+4]`, the T/C is 108 % of control (endpoint: median survival time, dose: 3.12 mg/kg/injection, schedule: Q04DX003 (ip), vehicle: saline with Tween-80); 119 % of control and 109 % of control (endpoint: median survival time, dose: 6.25 mg/kg/injection, schedule: Q04DX003 (ip), vehicle: saline with Tween-80); 119 % of control and 109 % of control (endpoint: median survival time, dose: 12.5 mg/kg/injection, schedule: Q04DX003 (ip), vehicle: saline with Tween-80); 113 % of control and 120 % of control (endpoint: median survival time, dose: 25.0 mg/kg/injection, schedule: Q04DX003 (ip), vehicle: saline with Tween-80); 158 % of control and 168 % of control (endpoint: median survival time, dose: 100.0 mg/kg/injection, schedule: Q04DX003 (ip), vehicle: saline with Tween-80); 204 % of control and 301 % of control (endpoint: median survival time, dose: 200.0 mg/kg/injection, schedule: Q04DX003 (ip), vehicle: saline with Tween-80).
With `C/C=C/C(=O)Nc1ccc(Cl)c(Cl)c1`, the T/C was 102 % of control (endpoint: mean survival time, dose: 25.0 mg/kg/injection, schedule: Q01DX001 (ip), vehicle: saline with Tween-80); 101 % of control (endpoint: mean survival time, dose: 50.0 mg/kg/injection, schedule: Q01DX001 (ip), vehicle: saline with Tween-80); 95 % of control under setting [4].
For `CCN(CC)C(=O)Nc1ccc(Cl)cc1`, the T/C reads like this: under setting [1], 104 % of control; under setting [2], 108 % of control.
With `N#C/C(C(=S)S)=C(/O)c1ccccc1`, the T/C is 102 % of control (endpoint: mean survival time, dose: 25.0 mg/kg/injection, schedule: Q01DX009 (ip), vehicle: saline with Tween-80); 101 % of control under setting [5]; 102 % of control under setting [6]; 94 % of control under setting [7].
For `C/C(=N\N=C(/[Se])N1CC2CCC(CC2)C1)c1ccccn1`, the T/C is, setting by setting: (endpoint: median survival time, dose: 0.75 mg/kg/injection, schedule: Q01DX009 (ip), vehicle: Klucel (hydroxypropylcellulose) (HPC)) 101 % of control; (endpoint: median survival time, dose: 1.5 mg/kg/injection, schedule: Q01DX009 (ip), vehicle: Klucel (hydroxypropylcellulose) (HPC)) 103 % of control; (endpoint: median survival time, dose: 1.56 mg/kg/injection, schedule: Q01DX009 (ip), vehicle: Klucel (hydroxypropylcellulose) (HPC)) 93 % of control and 101 % of control; (endpoint: median survival time, dose: 3.0 mg/kg/injection, schedule: Q01DX009 (ip), vehicle: Klucel (hydroxypropylcellulose) (HPC)) 102 % of control; (endpoint: median survival time, dose: 3.12 mg/kg/injection, schedule: Q01DX009 (ip), vehicle: Klucel (hydroxypropylcellulose) (HPC)) 97 % of control and 110 % of control; (endpoint: median survival time, dose: 6.0 mg/kg/injection, schedule: Q01DX009 (ip), vehicle: Klucel (hydroxypropylcellulose) (HPC)) 104 % of control. The T/C is, setting by setting: (endpoint: median survival time, dose: 6.25 mg/kg/injection, schedule: Q01DX009 (ip), vehicle: Klucel (hydroxypropylcellulose) (HPC)) 86 % of control; (endpoint: median survival time, dose: 12.0 mg/kg/injection, schedule: Q01DX009 (ip), vehicle: Klucel (hydroxypropylcellulose) (HPC)) 102 % of control; (endpoint: median survival time, dose: 12.5 mg/kg/injection, schedule: Q01DX009 (ip), vehicle: Klucel (hydroxypropylcellulose) (HPC)) 109 % of control; (endpoint: median survival time, dose: 25.0 mg/kg/injection, schedule: Q01DX009 (ip), vehicle: Klucel (hydroxypropylcellulose) (HPC)) 89 % of control.
For the molecule `O=P1(NCCCl)OC(c2ccccc2)=CCN1CCCl` (centres undefined), the T/C reads like this: (endpoint: median survival time, dose: 31.25 mg/kg/injection, schedule: Q01DX001 (ip), vehicle: distilled water + Tween-80) 102 % of control; (endpoint: median survival time, dose: 62.5 mg/kg/injection, schedule: Q01DX001 (ip), vehicle: distilled water + Tween-80) 97 % of control; (endpoint: median survival time, dose: 125.0 mg/kg/injection, schedule: Q01DX001 (ip), vehicle: distilled water + Tween-80) 97 % of control; (endpoint: median survival time, dose: 250.0 mg/kg/injection, schedule: Q01DX001 (ip), vehicle: distilled water + Tween-80) 101 % of control; (endpoint: median survival time, dose: 500.0 mg/kg/injection, schedule: Q01DX001 (ip), vehicle: distilled water + Tween-80) 93 % of control.
As for `Cc1c2ccccc2c(CN2CC(O)CC2C(=O)O)c2ccc3ccccc3c12` (centres undefined), the T/C under setting [7] was 102 % of control, the T/C under setting [8] is 100 % of control and the T/C under setting [9] is 87 % of control.
With `CC1(C)CCCC2(C)C1C(=O)C=CC2(O)CCc1ccoc1.CC12CCc3ccoc3C1CCC1(C(=O)O)C(CO)=CCCC12.[Ag]` (centres undefined), the T/C is 103 % of control (endpoint: mean survival time, dose: 75.0 mg/kg/injection, schedule: Q04DX002 (ip), vehicle: other); 115 % of control (endpoint: mean survival time, dose: 150.0 mg/kg/injection, schedule: Q04DX002 (ip), vehicle: other); 107 % of control (endpoint: mean survival time, dose: 300.0 mg/kg/injection, schedule: Q04DX002 (ip), vehicle: other).
As for `Cc1ccc(NC(=O)ON(C)C)cc1`, the T/C (endpoint: mean survival time, dose: 100.0 mg/kg/injection, schedule: Q04DX002 (ip), vehicle: other) is 102 % of control.
For `CCCC(N(C)C)P(=O)(O)O` (centres undefined), the T/C by setting is: (endpoint: mean survival time, dose: 100.0 mg/kg/injection, schedule: Q04DX003 (ip), vehicle: saline) 95 % of control; (endpoint: mean survival time, dose: 200.0 mg/kg/injection, schedule: Q04DX003 (ip), vehicle: saline) 101 % of control; (endpoint: mean survival time, dose: 400.0 mg/kg/injection, schedule: Q04DX003 (ip), vehicle: saline) 101 % of control.
In the case of `CCCCC(=O)/C=C/c1ccccc1`, the T/C is, setting by setting: (endpoint: mean survival time, dose: 50.0 mg/kg/injection, schedule: Q04DX002 (ip), vehicle: saline with Tween-80) 97 % of control; under setting [1], 87 % of control; under setting [2], 105 % of control; under setting [3], 91 % of control.
Take `COC(=O)/C=C\C(=O)O`: the T/C (endpoint: mean survival time, dose: 50.0 mg/kg/injection, schedule: Q01DX009 (ip), vehicle: saline) is 102 % of control and the T/C (endpoint: mean survival time, dose: 100.0 mg/kg/injection, schedule: Q01DX009 (ip), vehicle: saline) was 100 % of control.
In the case of `Cn1c(CC(O)(C(F)(F)Cl)C(F)(F)Cl)cc(=O)n1-c1ccccc1`, the T/C by setting is: (endpoint: mean survival time, dose: 50.0 mg/kg/injection, schedule: Q04DX003 (ip), vehicle: saline with Tween-80) 101 % of control; under setting [6], 97 % of control; under setting [7], 97 % of control; under setting [10], 97 % of control; under setting [8], 97 % of control; under setting [9], 92 % of control.
For the molecule `Nc1nc(NCCc2ccccc2)c2ncn(C3OC(CO)C(O)C3O)c2n1` (centres undefined), the T/C reads like this: (endpoint: mean survival time, dose: 12.5 mg/kg/injection, schedule: Q01DX005 (ip), vehicle: other) 102 % of control; (endpoint: mean survival time, dose: 25.0 mg/kg/injection, schedule: Q01DX005 (ip), vehicle: other) 98 % of control; (endpoint: mean survival time, dose: 50.0 mg/kg/injection, schedule: Q01DX005 (ip), vehicle: other) 104 % of control; (endpoint: mean survival time, dose: 100.0 mg/kg/injection, schedule: Q01DX005 (ip), vehicle: other) 108 % of control.
With `O=C(CC(=O)c1ccccc1)c1ccccc1.O=C(CC(=O)c1ccccc1)c1ccccc1.[Cl][Sn][Cl]`, the T/C is 90 % of control under setting [7] and 94 % of control under setting [8].
With `C(=N\Nc1nc2ccccc2s1)/c1ccc2ccccc2n1`, the T/C (endpoint: mean survival time, dose: 100.0 mg/kg/injection, schedule: Q04DX003 (ip), vehicle: Klucel (hydroxypropylcellulose) (HPC)) is 95 % of control; the T/C (endpoint: mean survival time, dose: 200.0 mg/kg/injection, schedule: Q04DX003 (ip), vehicle: Klucel (hydroxypropylcellulose) (HPC)) was 94 % of control; the T/C (endpoint: mean survival time, dose: 400.0 mg/kg/injection, schedule: Q04DX003 (ip), vehicle: Klucel (hydroxypropylcellulose) (HPC)) is 94 % of control.
Regarding `O=C(CNC(=O)Nc1cccc([N+](=O)[O-])c1)N/N=C/c1c(O)ccc2ccccc12`, the T/C runs as follows: under setting [5], 88 % of control; under setting [6], 92 % of control; under setting [10], 95 % of control.
